# Results from publication PMC11001712, “Epiberberine: a potential rumen microbial urease inhibitor to reduce ammonia release screened by targeting UreG” (Applied Microbiology and Biotechnology, 2024).
# Like-named read-outs stand apart in the source and are kept apart here.
# Tests used:
# [1] = acute toxicity; ref Yi et al. [2013]; cited from earlier work
# UreG [2] = assay: UreG GTPase activity (Malachite Green Phosphate Assay); assay type: biochemical, rumen microorganisms of dairy cows; settings: for IC50: alkaloid 0, 6.25, 12.5, 25, 50 and 100 μM, triplicate, read-out: IC50 against UreG GTPase activity
# [3] = tested on: urease of ruminal microbial crude protein; assay: Urease activity of ruminal microbial crude protein (phenol/hypochlorite); assay type: biochemical, rumen microorganisms; settings: Fig. 5A
# Description: Ruminal microbial crude protein was collected by ultrasonication and centrifugation following a previously established method (Zhang et al. [2020b]). The urease activity of ruminal microbial crude protein was determined based on the amount of ammonia decomposed by urea through a modified phenol/hypochlorite reaction method (Krallmann-Wenzel [1985]), in which the urease activity without alkaloid and urea was set at 0, and the urease activity without alkaloid was set at 100%. The inhibition rate of alkaloid to inhibit urease activity was calculated by the following formula: Inhibitionrate%=1-A-B/C-D×100 where A represents the absorbance value of urease activity with alkaloid, B represents the absorbance value of urease activity with alkaloid but without urea, C represents the absorbance value of urease activity without alkaloid, and D represents the absorbance value of urease activity without alkaloid and urea. Each measurement was performed in triplicate.
# Helicobacter pylori = tested on: Helicobacter pylori; set-up: method as in Li et al. [2018]; settings: antibacterial study and urease activity in vivo; ref Li et al. [2018]; cited from earlier work
# (UniProt A0A6M3RDS9) = assay: UreG GTPase activity (Malachite Green Phosphate Assay); assay type: biochemical, rumen microorganisms of dairy cows; settings: alkaloid 0, 6.25, 12.5, 25, 50 and 100 μM; triplicate; read-out: IC50 against UreG GTPase activity
# UreG [4] = assay: Isothermal titration calorimetry of nickel binding to UreG in presence of alkaloid; set-up: species or system rumen microorganisms of dairy cows; settings: for Effect on KD value between nickel and UreG / Effect on N value (nickel: UreG): 27 μM UreG, 1500 μM NiSO4, 238 μM alkaloid
# Description: The inhibition mechanism of UreG by alkaloid was explored using ITC and CD spectroscopy, to reveal the effects of alkaloid on the combination of nickel towards UreG and the secondary structure of UreG. ITC measurements were carried out with an AutoITC200 microcalorimeter (GE, MA, USA) as described previously (Zhang et al. [2020a]). Briefly, 27 µM UreG was titrated with 1500 µM NiSO4 in the present of 238 µM alkaloid. The titration curve was fitted with the one-site binding model, and the final data was analyzed by ITC Analysis Module in the software of Origin 7.0 (OriginLab, MA, USA).
# UreG [5] = assay: Circular dichroism spectroscopy of UreG secondary structure; set-up: species or system rumen microorganisms of dairy cows; settings: 233 μg/mL UreG, 88 μM alkaloid
# Description: The CD spectra of UreG were recorded using Chirascan Plus spectrometer (Applied Photophysics Ltd., Surrey, UK) equipped with a 1-mm quartz cell, at measurement range between 190 and 260 nm, with 1 nm data pitch and bandwidth. To reduce interference from the background solution, 233 µg/mL UreG and 88 µM alkaloid were prepared using distilled water. The final CD spectrum of UreG was obtained by subtracting the background spectrum (distilled water or alkaloid) from the sample spectrum. The secondary structure proportions (α-helix, β-sheet, β-turn, and random coil) in UreG were calculated using CDNN (v.2.1) software (Applied Photophysics Ltd., Leatherhead, UK).
# UreG [6] = settings: from trend of Km and Vmax with alkaloid concentration
# Description: The kinetics assay of UreG by alkaloid was carried out by Michaelis–Menten equation, and the values of Michaelis–Menten constants (Km and Vmax) were calculated from the Lineweaver–Burk plots through the software of GraphPad Prism. The inhibition with various concentrations of alkaloids (0, 15.6, 62.5, and 250 µM) was measured at different concentrations of GTP substrate (0, 12.5, 25, 50, 100, and 200 µM).
# [7] = tested on: rumen microbial urease (rumen fluid); assay: Ruminal microbial fermentation in vitro (NH3 and urea); assay type: cell-based, rumen microorganisms; settings: 15 mM urea; for Decrease in NH3 concentration: 12 h of incubation
# Description: The study of ruminal microbial fermentation consisted of a control group and 3 epiberberine treatment groups, each containing 70 mL fresh rumen fluid and 140 mL anaerobic medium (Zhang et al. [2020c]). Epiberberine treatment groups with the final concentration of 2, 20, and 200 μM were pre-incubated in an anaerobic chamber at 39 °C for 15 min. Immediately after inoculation, 10 mL aliquots of mixed solution were transferred into Hungate tubes, urea with a final concentration of 15 mM was added into each tube. Three tubes were immediately collected from each group as 0 h samples; the others were sealed with rubber stoppers and cultured in an incubator. Samples were collected at 1, 2, 4, 8, and 12 h of incubation, with 3 tubes in each group. The collected tubes were immediately placed on ice to slow down fermentation; 400 μL of sample solution was mixed with 800 μL metaphosphoric acid solution (25% w/v) and centrifuged at 12,000 × g for 5 min. The supernatant was collected for the detection of NH3 and urea. NH3 content was measured by a modified phenol/hypochlorite reaction method. Urea concentration was determined using the diacetyl monoxime method kit following the manufacturer’s instructions (Jiancheng Bioengineering, Nanjing, China).
# urease = tested on: urease; set-up: method as in Tan et al. [2017]; settings: ref Tan et al. [2017]; cited from earlier work
# [8] = cited from earlier work
# [9] = rat, in vivo, po; cited from earlier work
# [10] = tested on: urease of Helicobacter pylori; set-up: method as in Li et al. [2016]; settings: ref Li et al. [2016]; cited from earlier work
# Sequence of (UniProt A0A6M3RDS9) (A0A6M3RDS9 1-203): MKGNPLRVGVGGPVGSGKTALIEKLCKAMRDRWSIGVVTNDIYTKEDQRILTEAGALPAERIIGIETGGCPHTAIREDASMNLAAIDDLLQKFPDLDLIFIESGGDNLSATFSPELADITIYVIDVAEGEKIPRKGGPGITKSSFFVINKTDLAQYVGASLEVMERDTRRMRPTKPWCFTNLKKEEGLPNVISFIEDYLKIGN
structure (smiles),measurement,setting,value
COc1cc2c(cc1OC)-c1cc3ccc(OC)c(OC)c3c[n+]1CC2 [palmatine],Median lethal dose,[1],1533.7 mg/kg
"CC(=O)NO [AHA, acetohydroxamic acid, reference compound]",Inhibition rate of UreG GTPase activity,UreG [2]; Fig. 1A screening,little effect
same,Inhibition rate of urease activity against ruminal microbial crude protein,[3],40%
c1c2c(cc3c1OCO3)-c1cc3ccc4c(c3c[n+]1CC2)OCO4 [coptisine],Inhibitory effect on Helicobacter pylori among the 5 major protoberberine alkaloids,Helicobacter pylori,strongest inhibitory effect
COc1ccc2cc3[n+](cc2c1OC)CCc1cc2c(cc1-3)OCO2 [berberine chloride],IC50,(UniProt A0A6M3RDS9),43.2 µM
same,Effect on KD value between nickel and UreG,UreG [4],slightly altered
same,Effect on N value (nickel: UreG),UreG [4],slightly altered
same,Secondary structural content changes of UreG,UreG [5],slight changes
same,Type of inhibition of UreG,UreG [6],mixed-type inhibitor
COc1cc2c(cc1OC)-c1cc3ccc4c(c3c[n+]1CC2)OCO4 [epiberberine],IC50,(UniProt A0A6M3RDS9),56.9 µM
same,Effect on KD value between nickel and UreG,UreG [4],increased
same,Effect on N value (nickel: UreG),UreG [4],decreased
same,Weaker binding of nickel and UreG compared to that of berberine chloride,UreG [4]; 238 μM alkaloid,10.8 fold
same,Decrease in the α-helix content of UreG,UreG [5],~ 56%
same,Increasement in the β-sheet content of UreG,UreG [5],~ 105%
same,Inhibition rate of urease activity against ruminal microbial crude protein,[3],significantly higher than that of berberine chloride and AHA
same,Urea remaining during fermentation,"[7]; 2 μM, after 8 h of incubation",completely decomposed
same,Decrease in NH3 concentration,[7]; 20 μM,13.1%
same,Decrease in NH3 concentration,[7]; 200 μM,15.6%
same,Type of inhibition of UreG,UreG [6],uncompetitive inhibition type
same,Inhibitory potential against urease based on IC50 (rank among 5 alkaloids),urease,lowest IC50 value
same,Median lethal dose,[1],1360.0 mg/kg
same,Oral bioavailability,"[8]; rat, in vivo, po",14.5%
same,"Detection in urine, feces and bile",[9],not detected
COc1cc2c(cc1OC)-c1cc3ccc(OC)c(OC)c3c[n+]1CC2 [Palmatine chloride],IC50,(UniProt A0A6M3RDS9),94.8 µM
COc1ccc2cc3[n+](cc2c1OC)CCc1cc2c(cc1-3)OCO2 [berberine],Inhibitory potential against urease based on IC50 (rank among 5 alkaloids),urease,weakest one among the 5 alkaloids
same,Inhibitory activity against urease of Helicobacter pylori,[10],little inhibitory activity
same,Oral bioavailability,"[8]; rats, ref Chen et al. [2017]",< 1%
c1c2c(cc3c1OCO3)-c1cc3ccc4c(c3c[n+]1CC2)OCO4 [Coptisine chloride],IC50,UreG [2],86.6 µM
same,Inhibition rate of UreG GTPase activity relative to coptisine,UreG [2]; ratio of inhibition rates,2.5 times
COc1cc2c(cc1O)CC[n+]1cc3c(OC)c(OC)ccc3cc1-2 [Jatrorrizine chloride],IC50,UreG [2],60.1 µM
